The text below walks through data of US8436049B2, “Uses of pentamidine and related compounds” (State of Oregon Acting By and Through the State Board of …, priority 2008, dated 2013).

Molecules are shown by their SMILES. Starred links: 1 amine or outer side, 2 acyl side, 3 side chain; linkers in the order of their positions; H or OH if unused. Positions of bridges follow the written chain, without caps; N, C: chain ends. Non-standard residues stand in square brackets, D forms with d. Residues, ends and D or L forms follow the SMILES beside them. Chains are numbered I, II in the order given. Actinocin(9to1) = Cc1c2oc3c(C)ccc(C(=O)[*:1])c3nc-2c(C(=O)[*:2])c(N)c1=O; NMeV = CN[C@H](C(=O)O)C(C)C; Sar = CNCC(=O)O

The target of one assay is T1, MBNL-CUG RNA complex (Homo sapiens, UniProt Q9NR56).
T1 construct: Both the full length MBNL and MBNL (1-260) constructs were cloned using BamHI and NotI restriction sites; GST (N, cleaved yes); made in house; host or cells: E. coli BL21-Star
T1 sequence (Q9NR56 1-382 isoform Q9NR56-5): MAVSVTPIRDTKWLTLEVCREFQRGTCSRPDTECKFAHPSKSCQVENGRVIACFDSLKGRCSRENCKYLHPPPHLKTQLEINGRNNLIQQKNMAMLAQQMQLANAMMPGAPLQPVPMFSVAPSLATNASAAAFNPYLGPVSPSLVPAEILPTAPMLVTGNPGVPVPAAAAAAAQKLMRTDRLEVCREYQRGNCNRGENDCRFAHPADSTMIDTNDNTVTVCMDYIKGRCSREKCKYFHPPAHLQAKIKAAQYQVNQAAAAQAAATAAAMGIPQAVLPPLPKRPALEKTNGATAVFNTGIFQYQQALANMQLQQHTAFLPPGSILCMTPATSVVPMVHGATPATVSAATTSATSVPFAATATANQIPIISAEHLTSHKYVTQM
The assay is described as follows: Gel shift assay, disruption of MBNL binding to short CUG repeat RNA. To be noted: for Disruption of the MBNL-CUG interaction: gel shift screen, increasing amounts of small molecule. The procedure:
MBNL1 (MBNL) was PCR amplified and was cloned into GST fusion vector pGEX-6P-1 (GE Healthcare, Piscataway, N.J.), using DNA encoding a MBNL isoform with amino acids 1-382). Both the full length MBNL and MBNL (1-260) constructs were cloned using BamHI and NotI restriction sites. Using BL21-Star expression cells (Invitrogen, Carlsbad, Calif.), protein expression was induced with 0.25 mM IPTG at an OD600 of about 0.5-1, for 3-4 hours at 37° C. Cells were lysed in 30 ml of buffer (500 mM NaCl, 25 mM Tris pH 7.5, 10 mM β-mercaptoethanol (BME) and 5% glycerol) using 1 mg/ml of lysozyme, followed by sonication (3×30 seconds). Cell extract was centrifuged for 15 minutes at 17,000 rpm, and lysate which contained GST-MBNL was collected. GST-MBNL was bound to GST affinity beads for 30 minutes at 4° C. […] The protein was then run over an anion exchange (Q) column. […] MBNL was collected in the column flow through, concentrated and dialyzed into storage buffer (30% glycerol, 300 mM NaCl, 20 mM Tris pH 7.5, 5 mM BME) and stored at −80° C. Aliquots were removed from −80° C. and temporarily placed at −20° C. until used for an experiment.
All RNA substrates that were radiolabeled were ordered from IDT DNA (Coralville, Iowa), and 5′ end-labeled using [γ-^32P]ATP. All radiolabeled RNAs were purified on 8% polyacrylamide denaturing gels.
Solutions for the protein-RNA binding experiments contained 125 mM NaCl, 5 mM MgCl2, 20 mM Tris (pH 7.5), 7.5% glycerol, 2 mg/ml bovine serum albumin, and 0.1 mg/ml heparin. Prior to incubation, RNA substrates were annealed by incubation at 95° C. for 2 minutes and then placed directly on ice for 20 minutes in 66 mM NaCl, 6.7 mM MgCl2, and 27 mM Tris (pH 7.5). Protein was then added to the RNA in the presence or absence of the small molecule. The binding reaction was carried out in a 10 μL volume and was incubated for 10 minutes at room temperature before 2-4 μL were loaded on a pre-chilled 4° C. gel. RNA and RNA-protein complexes were separated on 3% acrylamide (37.5:1), 0.3% agarose (low melting point), 0.5× Tris-Borate (TB) gels, run for approximately 2-3 hours at 4° C. at 25-50 volts. Gels were dried and autoradiographed. For the neomycin B and CUG8 gel shift, an 8% acrylamide (29:1), 0.5×TB gel was used and run for 3 hours at 4° C. at 175 volts. All small molecules were dissolved in either water or ethanol, according to the manufacturer's guidance for solubility.
For binding curves, gels were quantified using ImageQuant® software (Molecular Dynamics, Piscataway, N.J.). The percent RNA bound was determined by taking the ratio of RNA-protein complex to total RNA, per lane. Any counts in the well were discarded as it was unapparent if the RNA was bound by protein, small molecule or was in an aggregate. Binding curves were graphed using KaleidaGraph software (Synergy Software, Reading, Pa.). For the neomycin B and CUG8 gel shift, the apparent Kd was determined using Equation 1, where Y=fraction bound, m0=small molecule concentration, m1=total RNA concentration, and m2=Kd.
For determining the EC50, Equation 3 was used, where m0=small molecule concentration, m1=EC50, m2=Hill coefficient, and m3=fraction MBNL bound without small molecule present. Y=m3/[1+(m0/m1)^m2] Equation 3 Results

The test system of assay [1] is cTNT splicing reporter in HeLa cells. The assay is described as follows: cTNT splicing reporter (exon 5 inclusion) in HeLa cells with or without CUG960 plasmid. It counts as cell-based. To be noted: presence of the CUG960 construct. The procedure: HeLa cells were grown in monolayers in DMEM with GlutaMAX™ (Gibco, Carlsbad, Calif.) and supplemented with 10% fetal bovine serum. Approximately 2.0 (±0.2)×10^5 cells were plated in 6 well plates and transfected 18-20 hours later at 70-90% confluency. 1 μg of plasmid was transfected into each well of cells, using 5 μL of […] (Invitrogen) according to the manufacturer's protocols. For co-transfection, 1 μg of total plasmid was transfected, at 500 ng of each construct. Test compounds were added 4 hours after transfection, when the media was changed. Cells were harvested 18-22 hours after transfection using TrypLE™ reagent (Gibco).
Immediately following harvesting, RNA was isolated from the cell pellets using an RNeasy® kit (Qiagen, Valencia, Calif.). 500 ng of isolated RNA was DNased with RQI DNase (Promega, Madison, Wis.) according to manufacture's protocol. 100 ng of DNAsed RNA was reverse transcribed with Superscript® II (Invitrogen, Carlsbad, Calif.) and a cTNT-specific reverse primer according to manufacturer's protocols. 30 ng of the reverse transcription reaction was subjected to 22-25 rounds of PCR amplification using cTNT specific primers spiked with a forward primer 5′ end-labeled with [γ-^32P]ATP. Similar methods were used to reverse transcribe and amplify IR and PLEKHH2. […] The resulting PCR products were run on a 6% (19:1) polyacrylamide denaturing gel. The gel was subsequently autoradiographed and quantitation of the radioactive bands was performed using ImageQuant® software.
The following primer pairs were used. For the cTNT minigene, the forward primer was […] (SEQ ID NO: 1), and the reverse primer was […] (SEQ ID NO: 2). For the IR minigene, the forward primer was […] (SEQ ID NO: 3), and the reverse primer was […] (SEQ ID NO: 4). The underlined sections are for cloning purposes. For the PLEKHH2 minigene, the forward primer was […] (SEQ ID NO: 5), and the reverse primer was […] (SEQ ID NO: 6).
The ability of pentamidine to alter the splicing defects observed in a cell-based model for DM was tested. This was accomplished in a system using cells transformed with a plasmid expressing 960 CUG repeats where the expression of these CUG repeats causes splicing defects similar to those observed in DM cells and DM subjects (Savkur et al., Nature Genet. 29:40-47, 2001).

In the next assay the target is T2, MBNL-cTNT interaction (Homo sapiens, UniProt Q9NR56).
T2 construct: Both the full length MBNL and MBNL (1-260) constructs were cloned using BamHI and NotI restriction sites; GST (N, cleaved yes); made in house; host or cells: E. coli BL21-Star
T2 sequence (Q9NR56 1-382 isoform Q9NR56-5): T1 sequence (Q9NR56 1-382 isoform Q9NR56-5)
Description: Gel shift assay, disruption of MBNL binding to cTNT pre-mRNA site. To be noted: read-out: EC50 for disruption of MBNL binding to cTNT target construct. The procedure:
Solutions for the protein-RNA binding experiments contained 125 mM NaCl, 5 mM MgCl2, 20 mM Tris (pH 7.5), 7.5% glycerol, 2 mg/ml bovine serum albumin, and 0.1 mg/ml heparin. Prior to incubation, RNA substrates were annealed by incubation at 95° C. for 2 minutes and then placed directly on ice for 20 minutes in 66 mM NaCl, 6.7 mM MgCl2, and 27 mM Tris (pH 7.5). Protein was then added to the RNA in the presence or absence of the small molecule. The binding reaction was carried out in a 10 μL volume and was incubated for 10 minutes at room temperature before 2-4 μL were loaded on a pre-chilled 4° C. gel. […]
For binding curves, gels were quantified using ImageQuant® software (Molecular Dynamics, Piscataway, N.J.). The percent RNA bound was determined by taking the ratio of RNA-protein complex to total RNA, per lane. […] Binding curves were graphed using KaleidaGraph software (Synergy Software, Reading, Pa.). For the neomycin B and CUG8 gel shift, the apparent Kd was determined using Equation 1, where Y=fraction bound, m0=small molecule concentration, m1=total RNA concentration, and m2=Kd. […]
Pentamidine has been shown previously to bind to other RNAs and DNAs (Zhang et al., RNA 6:937-951, 2000); therefore, we determined pentamidine binding to an endogenous target of MBNL. […]
A general note: Mobility shift assays separate free from complexed probe on a gel.

On to `Cc1c2oc3c(C)ccc(C(=O)N[C@@H]4C(=O)N[C@H](C(C)C)C(=O)N5CCC[C@H]5C(=O)N(C)CC(=O)N(C)[C@@H](C(C)C)C(=O)O[C@@H]4C)c3nc-2c(C(=O)N[C@@H]2C(=O)N[C@H](C(C)C)C(=O)N3CCC[C@H]3C(=O)N(C)CC(=O)N(C)[C@@H](C(C)C)C(=O)O[C@@H]2C)c(N)c1=O` [actinomycin D] (I: T[dV]P[Sar][NMeV] / II: T[dV]P[Sar][NMeV]; ester I:1-I:C, II:1-II:C; linker I:N-II:N via Actinocin(9to1)), for which the “Disruption of the MBNL-CUG interaction” value at MBNL-CUG RNA complex is reported as “did not disrupt the MBNL-CUG interaction at any concentration”.
On to `N=C(N)c1ccc(OCCCCCCCOc2ccc(C(=N)N)cc2)cc1` [heptamidine], for which the “Concentration giving complete rescue of cTNT missplicing” value in assay [1] came to 25 µM.
For `NC[C@@H]1O[C@H](O[C@H]2[C@@H](O)[C@H](O[C@@H]3[C@@H](O)[C@H](N)C[C@H](N)[C@H]3O[C@H]3O[C@H](CN)[C@@H](O)[C@H](O)[C@H]3N)O[C@@H]2CO)[C@H](N)[C@@H](O)[C@@H]1O` [neomycin B], the “Disruption of the MBNL-CUG interaction” value on MBNL-CUG RNA complex was “disrupt the MBNL-CUG interaction at micromolar concentrations”. The EC50 (in general, the concentration that produces a half-maximal response) at MBNL-CUG RNA complex (gel shift, short CUG repeat RNA (CUG4), read-out: EC50 for disruption of MBNL binding to CUG repeat construct) is 110 µM; on MBNL-cTNT interaction, 50 µM.
Take `NC[C@@H]1O[C@H](O[C@H]2[C@@H](O)[C@H](O[C@@H]3[C@@H](O)[C@H](N)C[C@H](N)[C@H]3O[C@H]3O[C@H](CO)[C@@H](O)[C@H](O)[C@H]3N)O[C@@H]2CO)[C@H](N)[C@@H](O)[C@@H]1O` [paromomycin]: the “Disruption of the MBNL-CUG interaction” value on MBNL-CUG RNA complex was “did not disrupt the MBNL-CUG interaction at any concentration”.
As to `CN1C(=Cc2cc[n+](C)c3ccccc23)Sc2ccccc21` [thiazole orange], the “Disruption of the MBNL-CUG interaction” value at MBNL-CUG RNA complex is on record as “disrupt the MBNL-CUG interaction at micromolar concentrations”.
